This note sets out measurements from patent US9670227B2, “Thienopyrimidine derivatives, a process for their preparation and pharmaceutical compositions containing them” (LES LABORATOIRES SERVIER, priority 2013, dated 2017).

One assay has as its target Mcl-1 protein (UniProtKB primary accession number: Q07820) (Homo sapiens, UniProt Q07820). The assay is described as follows: Inhibition of Mcl-1 by fluorescence polarisation, Method 1. Type of assay: binding. Particulars: fluorescence polarisation test; Method 2 values are underlined in the patent (underlining not visible here); read-out: IC50 (M) Mcl-1 FP. An outline of the steps: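 Fluorescence polarisation competition with an 11-point compound dilution series (final DMSO 5%). Mcl-1 protein at 5 nM and fluorescein-labelled ligand at 1 nM (final) in 10 mM HEPES, 150 mM NaCl, 0.05% Tween 20, pH 7.4.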

Assay [1] relates to H929 multiple myeloma tumour line. The assay is described as follows: In vitro cytotoxicity, Microculture Tetrazolium Assay. Type of assay: cell-based. The conditions noted are these: Homo sapiens, NCI-H929, 48 h, H929 cells, 48 hours exposure, MTT; read-out: IC50 (μM) MTT H929. The procedure:
The cytotoxicity studies were carried out on the H929 multiple myeloma tumour line.
The cells are distributed onto microplates and exposed to the test compounds for 48 hours.

SMILES strings stand for the structures.

Mcl-1 protein, sequence (Q07820 whole entry): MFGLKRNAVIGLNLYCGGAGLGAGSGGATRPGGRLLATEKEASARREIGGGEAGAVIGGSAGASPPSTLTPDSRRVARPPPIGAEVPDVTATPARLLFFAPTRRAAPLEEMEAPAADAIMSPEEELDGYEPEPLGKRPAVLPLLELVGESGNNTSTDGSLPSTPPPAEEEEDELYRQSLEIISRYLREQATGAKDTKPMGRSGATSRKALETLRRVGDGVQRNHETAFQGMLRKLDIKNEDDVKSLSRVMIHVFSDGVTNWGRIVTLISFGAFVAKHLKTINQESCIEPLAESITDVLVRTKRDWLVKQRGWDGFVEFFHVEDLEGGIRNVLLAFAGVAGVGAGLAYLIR

One may read the IC50 as the concentration needed to halve the response being measured. For the molecule `COc1ccc(Cn2nccc2COc2ccccc2CC(Oc2ncnc3sc(-c4ccc(F)cc4)c(-c4ccc(OCCN5CCN(C)CC5)c(Cl)c4C)c23)C(=O)O)cc1` [Example 79, (2R)-2-{[(5Sa)-5-{3-chloro-2-methyl-4-[2-(4-methylpiperazin-1-yl)ethoxy]phenyl}-6-(4-fluorophenyl)thieno[2,3-d]pyrimidin-4-yl]oxy}-3-(2-{[1-(4-methoxybenzyl)-1H-pyrazol-5-yl]methoxy}phenyl)propanoic acid], the half-inhibitory concentration (IC50) came to 1.3e-08 M on Mcl-1 protein and 0.168 µM in assay [1].

`Cc1c(-c2c(-c3ccc(F)cc3)sc3ncnc(OC(Cc4ccccc4OCc4ccnn4CC4CCCCC4)C(=O)O)c23)ccc(OCCN2CCN(C)CC2)c1Cl` [Example 80, (2R)-2-{[(5Sa)-5-{3-chloro-2-methyl-4-[2-(4-methylpiperazin-1-yl)ethoxy]phenyl}-6-(4-fluorophenyl)thieno[2,3-d]pyrimidin-4-yl]oxy}-3-(2-{[1-(cyclohexylmethyl)-1H-pyrazol-5-yl]methoxy}phenyl)propanoic acid]: the half-maximal inhibitory concentration (IC50) on Mcl-1 protein was 4.5e-09 M; in assay [1] it was 0.035 µM.

As to `CCCn1nccc1COc1ccccc1CC(Oc1ncnc2sc(-c3ccc(F)cc3)c(-c3ccc(OCCN4CCN(C)CC4)c(Cl)c3C)c12)C(=O)O` [Example 81, (2R)-2-{[(5Sa)-5-{3-chloro-2-methyl-4-[2-(4-methylpiperazin-1-yl)ethoxy]phenyl}-6-(4-fluorophenyl)thieno[2,3-d]pyrimidin-4-yl]oxy}-3-{2-[(1-propyl-1H-pyrazol-5-yl)methoxy]phenyl}propanoic acid], the IC50 was found to be 7.6e-09 M at Mcl-1 protein and 0.034 µM in assay [1].

For the molecule `Cc1c(-c2c(-c3ccc(F)cc3)sc3ncnc(OC(Cc4ccccc4OCc4ccnn4CCC(C)C)C(=O)O)c23)ccc(OCCN2CCN(C)CC2)c1Cl` [Example 82, (2R)-2-{[(5Sa)-5-{3-chloro-2-methyl-4-[2-(4-methylpiperazin-1-yl)ethoxy]phenyl}-6-(4-fluorophenyl)thieno[2,3-d]pyrimidin-4-yl]oxy}-3-(2-{[1-(3-methylbutyl)-1H-pyrazol-5-yl]methoxy}phenyl)propanoic acid], the 50% inhibitory concentration (IC50) amounted to 5.1e-09 M on Mcl-1 protein and 0.078 µM in assay [1].

`Cc1c(-c2c(-c3ccc(F)cc3)sc3ncnc(OC(Cc4ccccc4OCc4ccnn4CCCC(F)(F)F)C(=O)O)c23)ccc(OCCN2CCN(C)CC2)c1Cl` [Example 84, (2R)-2-{[(5Sa)-5-{3-chloro-2-methyl-4-[2-(4-methylpiperazin-1-yl)ethoxy]phenyl}-6-(4-fluorophenyl)thieno[2,3-d]pyrimidin-4-yl]oxy}-3-(2-{[1-(4,4,4-trifluorobutyl)-1H-pyrazol-5-yl]methoxy}phenyl)propanoic acid]: the IC50 on Mcl-1 protein was 3.8e-09 M; in assay [1], 0.018 µM.

Regarding `CCCCCn1nccc1COc1ccccc1CC(Oc1ncnc2sc(-c3ccc(F)cc3)c(-c3ccc(OCCN4CCN(C)CC4)c(Cl)c3C)c12)C(=O)O` [Example 85, (2R)-2-{[(5Sa)-5-{3-chloro-2-methyl-4-[2-(4-methylpiperazin-1-yl)ethoxy]phenyl}-6-(4-fluorophenyl)thieno[2,3-d]pyrimidin-4-yl]oxy}-3-{2-[(1-pentyl-1H-pyrazol-5-yl)methoxy]phenyl}propanoic acid], the figures for the IC50 (on Mcl-1 protein; in assay [1]) were 3.6e-09 M and 0.063 µM, respectively.

For `COCCCn1nccc1COc1ccccc1CC(Oc1ncnc2sc(-c3ccc(F)cc3)c(-c3ccc(OCCN4CCN(C)CC4)c(Cl)c3C)c12)C(=O)O` [Example 86, (2R)-2-{[(5Sa)-5-{3-chloro-2-methyl-4-[2-(4-methylpiperazin-1-yl)ethoxy]phenyl}-6-(4-fluorophenyl)thieno[2,3-d]pyrimidin-4-yl]oxy}-3-(2-{[1-(3-methoxypropyl)-1H-pyrazol-5-yl]methoxy}phenyl)propanoic acid], the IC50 on Mcl-1 protein came to 2.9e-09 M; in assay [1], 0.063 µM.
